The results in this text go back to ChEMBL document CHEMBL1139678, “Design and synthesis of novel N-sulfonyl-2-indole carboxamides as potent PPAR-gamma binding agents with potential application to the treatment of osteoporosis” (Bioorg Med Chem Lett, 2006).

Values after ≈ are worked out from the molar mass of the structure shown. Active and inactive are the calls of the source. The rule behind the calls is not given here.

One data set concerns the target T1, Peroxisome proliferator-activated receptor gamma (Homo sapiens, UniProt P37231).
T1 sequence (P37231 whole entry): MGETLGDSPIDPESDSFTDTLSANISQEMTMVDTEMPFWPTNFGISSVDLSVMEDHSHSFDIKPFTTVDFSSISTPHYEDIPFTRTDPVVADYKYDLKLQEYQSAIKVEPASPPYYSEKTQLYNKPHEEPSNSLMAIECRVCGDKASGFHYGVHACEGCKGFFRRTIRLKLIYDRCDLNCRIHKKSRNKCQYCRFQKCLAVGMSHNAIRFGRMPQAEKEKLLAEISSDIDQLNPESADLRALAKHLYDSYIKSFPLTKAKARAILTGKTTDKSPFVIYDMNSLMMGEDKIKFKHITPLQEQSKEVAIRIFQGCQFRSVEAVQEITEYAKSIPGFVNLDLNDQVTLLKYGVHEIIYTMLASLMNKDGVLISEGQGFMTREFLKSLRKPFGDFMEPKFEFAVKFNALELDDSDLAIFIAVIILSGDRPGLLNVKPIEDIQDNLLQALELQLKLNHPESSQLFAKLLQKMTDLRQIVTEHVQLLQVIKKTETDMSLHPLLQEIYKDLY
The data set can be described thus: Displacement of Fluormone from PPAR gamma.
Details: not given
For `O=C(NS(=O)(=O)c1cccc(C(F)(F)F)c1)c1cc2ccccc2n1Cc1ccc(C(F)(F)F)cc1`, the IC50 (as a rule, the concentration needed to halve the response being measured) stood at 400 nM.

In turn, `CCn1c(C(=O)NS(=O)(=O)c2cccc(C(F)(F)F)c2)cc2ccccc21` gave an IC50 of 2440 nM.

`Cc1ccc(S(=O)(=O)NC(=O)c2cc3ccccc3n2Cc2cccc(C(F)(F)F)c2)cc1` came in with an IC50 of 290 nM.

`O=C(NS(=O)(=O)c1ccccc1)c1cc2ccccc2n1Cc1cccc(C(F)(F)F)c1`: the IC50 stood at 290 nM.

Compound `O=C(NS(=O)(=O)c1cccc(C(F)(F)F)c1)c1cc2cc(OCc3ccccc3)ccc2n1Cc1cccc(C(F)(F)F)c1` registered an IC50 of 770 nM.

As to `COc1cccc(Cn2c(C(=O)NS(=O)(=O)c3cccc(C(F)(F)F)c3)cc3ccccc32)c1`, the IC50 came out at 140 nM.

`COc1ccc(-c2c(C(=O)NS(=O)(=O)c3ccc(F)cc3)n(Cc3cccc(C(F)(F)F)c3)c3ccccc23)cc1` had an IC50 of 7 nM.

The compound `Cc1ccccc1S(=O)(=O)NC(=O)c1cc2ccccc2n1Cc1cccc(C(F)(F)F)c1` returned an IC50 of 180 nM. Compared with the last compound, the IC50 is about 26-fold higher.

Turning to `O=C(NS(=O)(=O)c1ccc(F)cc1)c1cc2ccccc2n1Cc1cccc(C(F)(F)F)c1`, the 50% inhibitory concentration (IC50) came to 720 nM.

The compound `O=C(NS(=O)(=O)c1ccccc1C(F)(F)F)c1cc2ccccc2n1Cc1cccc(C(F)(F)F)c1` yielded an IC50 of 80 nM.

As for `COc1ccc(-c2c(C(=O)NS(C)(=O)=O)n(Cc3cccc(C(F)(F)F)c3)c3ccccc23)cc1`, the IC50 came to 2 nM.

In turn, `COc1ccc(-c2c(C(=O)NS(=O)(=O)c3cccc(C(F)(F)F)c3)n(Cc3cccc(C(F)(F)F)c3)c3ccccc23)cc1` yielded an IC50 of 60 nM.

`O=C(NS(=O)(=O)c1cccc(C(F)(F)F)c1)c1cc2cc(Cl)ccc2n1Cc1cccc(C(F)(F)F)c1`: the IC50 was found to be 330 nM.

Compound `O=C(NS(=O)(=O)c1cccc(C(F)(F)F)c1)c1cc2ccccc2n1C(=O)c1cccc(C(F)(F)F)c1` showed an IC50 of 9400 nM.

Compound `O=C(NS(=O)(=O)c1ccc(Cl)s1)c1cc2ccccc2n1Cc1cccc(C(F)(F)F)c1` gave an IC50 of 80 nM. This IC50 is about 120-fold lower than that of the compound before.

In the case of `O=C(NS(=O)(=O)c1ccc2ccccc2c1)c1cc2ccccc2n1Cc1cccc(C(F)(F)F)c1`, the IC50 stood at 90 nM.

The compound `COc1ccc(-c2c(C(=O)NS(=O)(=O)c3ccccc3C)n(Cc3cccc(C(F)(F)F)c3)c3ccccc23)cc1` gave an IC50 of 7 nM.

`O=C(NS(=O)(=O)c1cccc(C(F)(F)F)c1)c1cc2ccccc2n1Cc1cccc(OC(F)(F)F)c1` had an IC50 of 90 nM. Compared with the last compound, the IC50 is about 13-fold higher.

As to `O=C(NS(=O)(=O)c1cccc(C(F)(F)F)c1)c1cc2cc(O)ccc2n1Cc1cccc(C(F)(F)F)c1`, the IC50 amounted to 540 nM.

`COC(=O)c1ccccc1S(=O)(=O)NC(=O)c1c(-c2ccc(OC)cc2)c2ccccc2n1Cc1cccc(C(F)(F)F)c1`: the IC50 amounted to 1 nM.

Consider `O=C(NS(=O)(=O)c1ccc(Cl)cc1)c1cc2ccccc2n1Cc1cccc(C(F)(F)F)c1`, for which the IC50 was 280 nM.

As to `CS(=O)(=O)NC(=O)c1cc2ccccc2n1Cc1cccc(C(F)(F)F)c1`, the IC50 was found to be 680 nM. This IC50 is about 2.4-fold higher than that of the compound before.

As for `O=C(NS(=O)(=O)c1cccc(C(F)(F)F)c1)c1cc2ccccc2n1Cc1cccc(C(F)(F)F)c1`, the IC50 amounted to 80 nM.

`O=C(NS(=O)(=O)c1cccc(C(F)(F)F)c1)c1cc2ccccc2n1Cc1cccc(OCc2ccccc2)c1` gave a half-maximal inhibitory concentration (IC50) of 50 nM.

`O=C(NS(=O)(=O)c1cccc(C(F)(F)F)c1)c1cc2ccccc2n1Cc1cc(Cl)ccc1Cl` displayed an IC50 of 380 nM.

`O=C(NS(=O)(=O)c1cccc(C(F)(F)F)c1)c1cc2ccccc2n1Cc1ccccc1` yielded a 50% inhibitory concentration (IC50) of 280 nM.

Compound `CC(C)(C)c1ccc(Cn2c(C(=O)NS(=O)(=O)c3cccc(C(F)(F)F)c3)cc3ccccc32)cc1` gave an IC50 of 330 nM.

A further data set deals with Osteoblast. Kind of data set: Induction of osteoblast differentiation assessed as stimulation of alkaline phosphatase in MC3T3-E1 cells. Type of data set: functional, cell-based. The conditions noted are these: Mus musculus.
On to `CN(CCOc1ccc(CC2SC(=O)NC2=O)cc1)c1ccccn1` (configuration not stated), for which the outcome was inactive.

As for `COc1ccc(-c2c(C(=O)NS(=O)(=O)c3ccccc3)n(Cc3cccc(C(F)(F)F)c3)c3ccccc23)cc1`, the EC50 (commonly the concentration needed to bring the measured effect to its halfway point) amounted to 100 nM.

On to `COC(=O)c1ccccc1S(=O)(=O)NC(=O)c1c(-c2ccc(OC)cc2)c2ccccc2n1Cc1cccc(C(F)(F)F)c1`, for which the EC50 was 1000 nM.

`O=C(NS(=O)(=O)c1ccc(Cl)cc1)c1cc2ccccc2n1Cc1cccc(C(F)(F)F)c1`: the EC50 was 1000 nM.

Test system in the next data set: not listed separately
The data set can be described thus: Solubility of the compound. Type of data set: physicochemical.
Details: not given
For `COc1ccc(-c2c(C(=O)NS(=O)(=O)c3ccccc3)n(Cc3cccc(C(F)(F)F)c3)c3ccccc23)cc1`, the solubility (as a rule, the dissolved amount per volume that the medium holds) was 5 µg/mL (≈ 8.86 µM).
